Results as given in US20090130171A1, “High concentration gentian violet containing medical devices and methods of making same” (priority 2007, published 2009).

Assays:
[1] = format: physicochemical; details: 0.5 %
Description: Compounding Conditions for stable gentian violet:
Barrel Temperatures: • Zone 1-5=170° C. • Zone 6=175° C.,
Compounding Temperature for degraded gentian violet:
Compounding was performed with Sigma Aldrich ACS grade gentian violet, lot 016K3691. HPLC analysis was performed by cutting and measuring 1 cm segments of each formulation (n=3) using the method described in Examples I and II.
The chromatograms in FIGS. 5-10 show the stable gentian violet followed by the degraded gentian violet, at 588 nm, 253 nm, and 280 nm. The degradation peaks from the 217° C. sample are evident as the new peaks at 253 and 280 nm wavelengths. The chromatogram of the low processing temperature was identical to that of the Gentian Violet raw material.

[2] = Decolorization of GV: photo-oxidation with H2O2 under UV light (Protocol 1); format: physicochemical; details: 0.1% GV in 3% H2O2 and agar stain
Description: (§1) Protocol 1. Photo-oxidation of GV with H2O2 • 1.1. 0.15 g GV (0.1% w/v) was dissolved in 150 ml 3% H2O2. The solution was exposed to UV light (Bio-lab hood) for 2 hours. 5 ml of solution was extracted out, in increments of 5 mins. • 1.2. 10 μl of 0.1% GV in DI water was spiked onto a plated agar plate. After staining of the agar plate (evaporation of most of the water from the spiked drop), H2O2 was pipetted onto the stain in increments of 50 μl every 5 mins for 2 hours, under the UV light. Protocol 2. Oxidation of GV by activation of H2O2 with Ag • 2.1. 10.6 mg of nano-particle Silver was mixed into 40 ml 3% H2O2 with constant stirring. 0.1% GV in water was added at various increments (10 μl-1 ml) until purple color persisted. Molar concentration ratios (GV:Ag) were calculated to determine the molar ratio where GV is no longer oxidized. • 2.2 10 μl of 0.1% GV in DI water was spiked onto a plated agar plate. After staining of the agar plate (evaporation of most of the water from the spiked drop), 0.009 g of Ag was applied to the surface of the stain and 100 μl of H2O2 was pipette onto the Ag. Protocol 3. Oxidation of GV by activation of H2O2 with Vitamin C 1% Vitamin C (w/v) was dissolved in 100 ml 3% H2O2. 7 g of TRIS buffer was also dissolved in the H2O2. 0.1% GV in water was added at increments of 10 μl until the purple color persisted.

[3] = Decolorization of GV: activation of H2O2 with nano-particle silver (Protocol 2); format: physicochemical
Description: as §1

[4] = Decolorization of GV: activation of H2O2 with Vitamin C (Protocol 3); format: physicochemical; details: 1% Vitamin C in 3% H2O2, TRIS, pH 6-7, first 10 μl of 0.1% GV
Description: as §1

processing temperature at which extruded gentian violet degrades [1]: 217 °C
color change of GV [2]: No color change
color change of GV solution ([3]; 0.1% GV pipetted into Ag + 3% H2O2 solution): fade to a faint yellow color
color of solution after GV addition [4]: remained purple
SMILES: CN(C)c1ccc(C(=C2C=CC(=[N+](C)C)C=C2)c2ccc(N(C)C)cc2)cc1 [gentian violet]
color change of GV stain on agar ([3]; 10 μl 0.1% GV stain, Ag + 100 μl H2O2): turn to a faint yellow color after 10 mins
